The text below walks through data of ChEMBL document CHEMBL3045384, “Evaluating commercially available rodenticide baits for invasive Gambian giant pouched rats (Cricetomys gambianus)” (2010).

Common to all, as to format: functional
Assay [1] relates to Cricetomys gambianus. The assay can be described thus: Rodenticidal activity against invasive Cricetomys gambianus (Gambian giant pouched rat) assessed as mean bait consumed using 0.0025% compound pellets bait by 7 day multiple-choice feeding trail method.
The subject of assay [2] is Cricetomys gambianus. The assay can be described thus: Rodenticidal activity against invasive Cricetomys gambianus (Gambian giant pouched rat) assessed as rodent body weight using 0.0025% compound pellets bait by 7 day multiple-choice feeding trail method (reference value: 1.44 kg).
Assay [3] concerns Cricetomys gambianus. Briefly: Rodenticidal activity against invasive Cricetomys gambianus (Gambian giant pouched rat) assessed as proportion of bait consumed using 0.0025% compound pellets bait by 7 day multiple-choice feeding trail method.
Assay [4] deals with Cricetomys gambianus. Briefly: Rodenticidal activity against invasive Cricetomys gambianus (Gambian giant pouched rat) assessed as rodent mortality using 0.0025% compound pellets bait by 7 day multiple-choice feeding trail method.
For assay [5], the system named is Cricetomys gambianus. Briefly: Rodenticidal activity against invasive Cricetomys gambianus (Gambian giant pouched rat) assessed as mean duration to death using 0.0025% compound pellets bait by 7 day multiple-choice feeding trail method.
Assay [6] concerns Cricetomys gambianus. The assay can be described thus: Rodenticidal activity against invasive Cricetomys gambianus (Gambian giant pouched rat) assessed as rodent body weight using 0.01% compound blocks bait by 7 day multiple-choice feeding trail method (reference value: 1.44 kg).
Assay [7] relates to Cricetomys gambianus. The assay can be described thus: Rodenticidal activity against invasive Cricetomys gambianus (Gambian giant pouched rat) assessed as proportion of bait consumed using 0.01% compound blocks bait by 7 day multiple-choice feeding trail method.
Assay [8] relates to Cricetomys gambianus. Briefly: Rodenticidal activity against invasive Cricetomys gambianus (Gambian giant pouched rat) assessed as mean duration to death using 0.01% compound blocks bait by 7 day multiple-choice feeding trail method.
In assay [9] the test system is Cricetomys gambianus. Briefly: Rodenticidal activity against invasive Cricetomys gambianus (Gambian giant pouched rat) assessed as mean bait consumed using 0.01% compound blocks bait by 7 day multiple-choice feeding trail method.
Assay [10] relates to Cricetomys gambianus. The assay can be described thus: Rodenticidal activity against invasive Cricetomys gambianus (Gambian giant pouched rat) assessed as rodent mortality using 0.01% compound blocks bait by 7 day multiple-choice feeding trail method.
Assay [11] concerns Cricetomys gambianus. Briefly: Rodenticidal activity against invasive Cricetomys gambianus (Gambian giant pouched rat) assessed as mean bait consumed using 0.0005% compound pellets bait by 7 day multiple-choice feeding trail method.
For assay [12], the system named is Cricetomys gambianus. Briefly: Rodenticidal activity against invasive Cricetomys gambianus (Gambian giant pouched rat) assessed as proportion of bait consumed using 0.0005% compound pellets bait by 7 day multiple-choice feeding trail method.
For assay [13], the system named is Cricetomys gambianus. The assay can be described thus: Rodenticidal activity against invasive Cricetomys gambianus (Gambian giant pouched rat) assessed as rodent mortality using 0.0005% compound pellets bait by 7 day multiple-choice feeding trail method.
In assay [14] the test system is Cricetomys gambianus. The assay can be described thus: Rodenticidal activity against invasive Cricetomys gambianus (Gambian giant pouched rat) assessed as rodent body weight using 0.0005% compound pellets bait by 7 day multiple-choice feeding trail method (reference value: 1.44 kg).
In assay [15] the test system is Cricetomys gambianus. The assay can be described thus: Rodenticidal activity against invasive Cricetomys gambianus (Gambian giant pouched rat) assessed as mean duration to death using 0.0005% compound pellets bait by 7 day multiple-choice feeding trail method.
For assay [16], the system named is Cricetomys gambianus. The assay can be described thus: Rodenticidal activity against invasive Cricetomys gambianus (Gambian giant pouched rat) assessed as mean duration to death using 0.005% compound blocks bait by 7 day multiple-choice feeding trail method.
Assay [17] deals with Cricetomys gambianus. The assay can be described thus: Rodenticidal activity against invasive Cricetomys gambianus (Gambian giant pouched rat) assessed as proportion of bait consumed using 0.005% compound blocks bait by 7 day multiple-choice feeding trail method.
In assay [18] the test system is Cricetomys gambianus. Briefly: Rodenticidal activity against invasive Cricetomys gambianus (Gambian giant pouched rat) assessed as rodent mortality using 0.005% compound pellets bait by 7 day multiple-choice feeding trail method.
The test system of assay [19] is Cricetomys gambianus. Briefly: Rodenticidal activity against invasive Cricetomys gambianus (Gambian giant pouched rat) assessed as proportion of bait consumed using 0.005% compound pellets bait by 7 day multiple-choice feeding trail method.
The subject of assay [20] is Cricetomys gambianus. The assay can be described thus: Rodenticidal activity against invasive Cricetomys gambianus (Gambian giant pouched rat) assessed as rodent body weight using 0.005% compound pellets bait by 7 day multiple-choice feeding trail method (reference value: 1.44 kg).
Assay [21] concerns Cricetomys gambianus. The assay can be described thus: Rodenticidal activity against invasive Cricetomys gambianus (Gambian giant pouched rat) assessed as mean bait consumed using 0.005% compound pellets bait by 7 day multiple-choice feeding trail method.
Assay [22] deals with Cricetomys gambianus. The assay can be described thus: Rodenticidal activity against invasive Cricetomys gambianus (Gambian giant pouched rat) assessed as mean bait consumed using 0.005% compound blocks bait by 7 day multiple-choice feeding trail method.
In assay [23] the test system is Cricetomys gambianus. The assay can be described thus: Rodenticidal activity against invasive Cricetomys gambianus (Gambian giant pouched rat) assessed as rodent body weight using 0.005% compound blocks bait by 7 day multiple-choice feeding trail method (reference value: 1.44 kg).
Assay [24] has as its system Cricetomys gambianus. Briefly: Rodenticidal activity against invasive Cricetomys gambianus (Gambian giant pouched rat) assessed as rodent mortality using 0.005% compound blocks bait by 7 day multiple-choice feeding trail method.

For `O=c1oc2ccccc2c(O)c1C1CC(c2ccc(-c3ccc(Br)cc3)cc2)Cc2ccccc21` (centres undefined) [BRODIFACOUM], the Activity with Cricetomys gambianus [1] came out at 89 g; in the assay on Cricetomys gambianus [2] it was 1.37 kg; in the assay with Cricetomys gambianus [3], 0.39%; in the assay with Cricetomys gambianus [4], 100%. Besides, the Time in the assay on Cricetomys gambianus [5] turned out to be 12.2 days.
On to `CN(c1c(Br)cc(Br)cc1Br)c1c([N+](=O)[O-])cc([N+](=O)[O-])cc1C(F)(F)F` [BROMETHALIN], for which the Activity in the assay with Cricetomys gambianus [6] was 1.55 kg; in the assay on Cricetomys gambianus [7] it was 0.21%; in the assay with Cricetomys gambianus [9], 25.58 g; in the assay with Cricetomys gambianus [10], 20%. Moreover, in the assay on Cricetomys gambianus [8], the Time is 14 days.
As to `O=C1c2ccccc2C(=O)C1C(=O)C(c1ccccc1)c1ccc(Cl)cc1` (centres undefined) [CHLOROPHACINONE], the Activity in the assay on Cricetomys gambianus [11] stood at 89.7 g; with Cricetomys gambianus [12] it was 0.3%; in the assay on Cricetomys gambianus [13] it was 50%; with Cricetomys gambianus [14] it was 1.47 kg. The Time in the assay on Cricetomys gambianus [15] amounted to 11.7 days.
As to `O=C1c2ccccc2C(=O)C1C(=O)C(c1ccccc1)c1ccccc1` [DIPHENADIONE], the Time in the assay on Cricetomys gambianus [16] was 12 days. Also, the Activity was 0.3% with Cricetomys gambianus [17]; 0% with Cricetomys gambianus [18]; 0.35% in the assay with Cricetomys gambianus [19]; 1.47 kg in the assay with Cricetomys gambianus [20]; 106.2 g in the assay on Cricetomys gambianus [21]; 92.6 g with Cricetomys gambianus [22]. Further, the Activity was 1.5 kg in the assay on Cricetomys gambianus [23] and 17% in the assay with Cricetomys gambianus [24].
